{
  "source": "ChEMBL document CHEMBL1145442",
  "about": "“Multistructure 3D-QSAR studies on a series of conformationally constrained butyrophenones docked into a new homology model of the 5-HT2A receptor” (J Med Chem, 2007)",
  "data": [
    {"target": "5-hydroxytryptamine receptor 2A (Rattus norvegicus, UniProt P14842)", "sequence (P14842 whole entry)": "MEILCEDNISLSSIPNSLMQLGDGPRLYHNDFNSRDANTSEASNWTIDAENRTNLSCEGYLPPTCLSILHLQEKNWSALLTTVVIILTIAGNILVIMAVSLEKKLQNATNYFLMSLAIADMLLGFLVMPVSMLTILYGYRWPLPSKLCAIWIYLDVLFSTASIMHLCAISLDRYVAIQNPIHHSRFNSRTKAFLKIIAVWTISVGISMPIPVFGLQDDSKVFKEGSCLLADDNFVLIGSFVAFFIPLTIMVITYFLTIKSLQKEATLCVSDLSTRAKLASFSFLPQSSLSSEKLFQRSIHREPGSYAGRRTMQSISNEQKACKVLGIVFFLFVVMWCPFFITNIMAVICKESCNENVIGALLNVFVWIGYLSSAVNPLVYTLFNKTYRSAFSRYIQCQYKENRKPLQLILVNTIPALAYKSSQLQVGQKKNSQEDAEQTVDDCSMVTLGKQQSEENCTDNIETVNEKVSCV", "experiment": "Binding affinity at rat 5HT2A receptor", "units": {"Ki": "nM"}, "values": [
      {"smiles": "O=C1CC(CN2CCN(CCCCC(=O)c3ccc(F)cc3)CC2)C(c2ccccc2)=NN1", "note": "(stereo unspecified)", "Ki": 1000},
      {"smiles": "O=C1CC(CN2CCC3(CC2)NCNC3=O)Cc2ccccc21", "note": "(stereo unspecified)", "Ki": "> 10000"},
      {"smiles": "COc1cc2c(cc1OC)C(=O)CC(CN1CCC3(CC1)NC(=O)NC3=O)C2", "note": "(stereo unspecified)", "Ki": "> 10000"},
      {"smiles": "O=C1c2ccoc2CCC1CCN1CCN(C(=O)c2ccc(F)cc2)CC1", "note": "(stereo unspecified)", "Ki": 2000},
      {"smiles": "O=C1CC(CN2CCN(CCCC(=O)c3ccc(F)cc3)CC2)C(c2ccccc2)=NN1", "note": "(stereo unspecified)", "Ki": 275},
      {"smiles": "O=C1CC(CN2CCC(c3noc4cc(F)ccc34)CC2)C(c2ccccc2)=NN1", "note": "(stereo unspecified)", "Ki": 57.5}
    ]}
  ]
}
